For data set [1], the target named is T1, BpMip (Burkholderia pseudomallei, UniProt Q63J95). In words: biochemical. It counts as binding, B. pseudomallei.
Data set [2] has as its target T1, BpMip. In words: biochemical.

SMILES strings stand for the structures.

T1 sequence (Q63J95 whole entry, added parts left off): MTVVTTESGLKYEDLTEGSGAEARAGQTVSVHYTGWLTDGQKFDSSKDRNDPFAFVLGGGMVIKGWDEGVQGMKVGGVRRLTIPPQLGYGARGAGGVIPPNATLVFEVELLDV

For orientation: Kd means the constant that tells how readily two partners part at equilibrium. High values mean a looser complex, low ones a tighter complex. A word on the IC50: it is the midpoint of a concentration-inhibition curve. Broadly, the Ki is the equilibrium dissociation constant of an inhibitor or competing ligand from its target. Lower therefore signals higher affinity. Turning to `COc1cc(NC(=O)CCNC(=O)[C@@H]2CCCCN2S(=O)(=O)Cc2ccccc2)cc(OC)c1OC` [SF339, (S)-1-(benzylsulfonyl)-N-(3-oxo-3-((3,4,5-trimethoxyphenyl)amino)propyl)piperidine-2-carboxamide], binding at BpMip [1] was characterised by a dissociation constant (Kd) of 10900 ± 200 nM. This compound yielded a concentration for half-maximal inhibition (IC50) against BpMip [2] of 260 nM. The same compound came in with a Ki at BpMip [2] (Ki (μM) Mean) of 0.45 µM. The “effect on B. pseudomallei-induced cytotoxicity” value in the data set with B. pseudomallei K96243 was “no statistically significant difference”.

Source of the values: paper PMC9155639 (Journal of Antimicrobial Chemotherapy, 2022).
